For experiment [1], the system named is Life-extended endometriotic (IE) cells. In words: Crystal violet growth/survival of life-extended endometriotic (IE) cells treated with chloroquine. It is filed as cell-based, human. The settings on record: 25 μM chloroquine, up to about 96 hours, crystal violet absorbance. The method, then: Life-extended endometriotic (IE) cells were treated with 25 μM chloroquine for up to about 96 hours. Cells were then stained with crystal violet and measured for overall growth at an absorbance of […], using a Bioteck plate reader.

The next experiment deals with LC3-II. In words: LC3-II levels in IE cells after chloroquine. It is filed as cell-based, human. The settings on record: chloroquine treatment.

With `CCN(CC)CCCC(C)Nc1ccnc2cc(Cl)ccc12` (centres unmarked) [chloroquine], the cellular survival result in experiment [1] was “dramatically inhibited”. Besides, the LC3-II levels entry in the experiment on LC3-II was “marked increase”.

Values taken from US10695341B2, “Compositions and methods for treating endometriosis” (UNIVERSITY OF SOUTH FLORIDA, priority 2014, dated 2020).
